What follows are compounds tested against T1, HDAC6 enzyme (Homo sapiens, UniProt Q9UBN7) (assay: HDAC6 enzyme inhibitory activity (HDAC-Glo I/II Assay kit)). Conditions: 10 μM; wells without enzyme = 100% inhibition; read-out: HDAC6 inhibitory rate (%) (10 μM).
T1 construct: transducing full length HDAC6 gene into Sf-9 insect cells; GST; purchased SignalChem; host or cells: Sf-9 insect cells
T1 sequence (Q9UBN7 1-1215): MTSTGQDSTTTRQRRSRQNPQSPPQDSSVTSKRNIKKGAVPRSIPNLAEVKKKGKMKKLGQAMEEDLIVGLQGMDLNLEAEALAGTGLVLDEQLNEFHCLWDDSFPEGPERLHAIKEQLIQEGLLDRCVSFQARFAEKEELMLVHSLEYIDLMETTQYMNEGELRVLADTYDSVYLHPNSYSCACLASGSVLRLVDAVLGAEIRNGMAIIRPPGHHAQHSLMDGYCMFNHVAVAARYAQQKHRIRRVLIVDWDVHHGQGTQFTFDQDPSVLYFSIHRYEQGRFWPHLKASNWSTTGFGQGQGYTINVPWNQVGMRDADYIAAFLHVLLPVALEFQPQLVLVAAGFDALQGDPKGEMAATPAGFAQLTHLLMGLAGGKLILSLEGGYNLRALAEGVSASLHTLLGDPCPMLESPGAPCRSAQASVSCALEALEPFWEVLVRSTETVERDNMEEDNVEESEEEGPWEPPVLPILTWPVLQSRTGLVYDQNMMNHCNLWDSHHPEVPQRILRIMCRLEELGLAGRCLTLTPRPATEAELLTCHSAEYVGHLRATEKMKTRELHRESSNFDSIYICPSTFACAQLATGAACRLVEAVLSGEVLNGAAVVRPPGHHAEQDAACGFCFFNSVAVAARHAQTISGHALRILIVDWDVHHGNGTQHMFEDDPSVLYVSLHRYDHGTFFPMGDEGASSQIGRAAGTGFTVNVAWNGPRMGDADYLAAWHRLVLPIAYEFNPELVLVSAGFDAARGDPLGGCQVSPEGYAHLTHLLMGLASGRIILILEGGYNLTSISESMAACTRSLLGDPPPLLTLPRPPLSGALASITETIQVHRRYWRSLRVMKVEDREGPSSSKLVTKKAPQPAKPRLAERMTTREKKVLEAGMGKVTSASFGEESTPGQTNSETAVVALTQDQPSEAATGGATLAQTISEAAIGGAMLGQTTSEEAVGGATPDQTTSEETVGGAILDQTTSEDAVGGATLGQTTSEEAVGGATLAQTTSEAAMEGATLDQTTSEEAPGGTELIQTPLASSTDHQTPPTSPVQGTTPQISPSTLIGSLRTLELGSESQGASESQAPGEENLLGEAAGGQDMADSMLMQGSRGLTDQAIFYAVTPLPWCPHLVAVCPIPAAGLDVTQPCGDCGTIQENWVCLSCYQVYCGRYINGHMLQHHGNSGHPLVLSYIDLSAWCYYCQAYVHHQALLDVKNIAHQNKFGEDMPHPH
Type: biochemical
Summary of the method: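 Luminescent HDAC-Glo I/II readout after 20 min room-temperature reaction with substrate-developer, following 60 min compound–enzyme preincubation. Enzyme: full-length HDAC6 from Sf-9 cells, GST-purified; buffer 24 mM Tris-HCl pH 7.5, 0.01% Tween-20, glutathione, salts. Wells lacking enzyme define 100% inhibition.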

| inhibition at 10 µM [%] | SMILES |
| --- | --- |
| 99 | O=C1c2cc(-c3nnc(C(F)F)o3)cnc2CN1Cc1cccc(F)c1F [Example 327, 6-(2,3-difluorobenzyl)-3-(5-(difluoromethyl)-1,3,4-oxadiazol-2-yl)-6,7-dihydro-5H-pyrrolo[3,4-b]pyridin-5-one] |
| 98 | O=C1c2cc(-c3nnc(C(F)F)o3)cnc2CN1Cc1ccc(F)cc1 [Example 328, 3-(5-(difluoromethyl)-1,3,4-oxadiazol-2-yl)-6-(4-fluorobenzyl)-6,7-dihydro-5H-pyrrolo[3,4-b]pyridin-5-one] |
| 99 | O=C1c2cc(-c3nnc(C(F)F)o3)cnc2CN1Cc1c(F)cccc1F [Example 329, 6-(2,6-difluorobenzyl)-3-(5-(difluoromethyl)-1,3,4-oxadiazol-2-yl)-6,7-dihydro-5H-pyrrolo[3,4-b]pyridin-5-one] |
| 97 | O=C1c2cc(-c3nnc(C(F)F)o3)cnc2CN1Cc1ccc(Cl)cc1 [Example 333, 6-(4-chlorobenzyl)-3-(5-(difluoromethyl)-1,3,4-oxadiazol-2-yl)-6,7-dihydro-5H-pyrrolo[3,4-b]pyridin-5-one] |
| 93 | O=C1c2cc(-c3nnc(C(F)F)o3)cnc2CN1Cc1ccc(C(F)(F)F)cc1 [Example 334, 3-(5-(difluoromethyl)-1,3,4-oxadiazol-2-yl)-6-(4-(trifluoromethyl)benzyl)-6,7-dihydro-5H-pyrrolo[3,4-b]pyridin-5-one] |
| 101 | O=C1c2cc(-c3nnc(C(F)F)o3)cnc2CN1Cc1ccc(OC(F)F)cc1 [Example 335] |
| 97 | O=C1c2cc(-c3nnc(C(F)F)o3)cnc2CN1Cc1ccc(F)c(F)c1 [Example 338, 6-(3,4-difluorobenzyl)-3-(5-(difluoromethyl)-1,3,4-oxadiazol-2-yl)-6,7-dihydro-5H-pyrrolo[3,4-b]pyridin-5-one] |
| 96 | O=C1c2cc(-c3nnc(C(F)F)o3)cnc2CN1Cc1ccccc1C(F)(F)F [Example 339, 3-(5-(difluoromethyl)-1,3,4-oxadiazol-2-yl)-6-(2-(trifluoromethyl)benzyl)-6,7-dihydro-5H-pyrrolo[3,4-b]-pyridin-5-one] |
| 96 | O=C1c2cc(-c3nnc(C(F)F)o3)cnc2CN1Cc1ccccc1Cl [Example 340, 6-(2-chlorobenzyl)-3-(5-(difluoromethyl)-1,3,4-oxadiazol-2-yl)-6,7-dihydro-5H-pyrrolo[3,4-b]pyridin-5-one] |

Second part, the compound before the results:

| SMILES | inhibition at 10 µM [%] |
| --- | --- |
| CS(=O)(=O)c1cncc(-c2ccccc2N2Cc3ccc(-c4nnc(C(F)F)o4)cc3C2=O)c1 [Example 314, 6-(5-(difluoromethyl)-1,3,4-oxadiazol-2-yl)-2-(2-(5-(methylsulfonyl)pyridin-3-yl)phenyl)isoindolin-1-one] | 101 |
| O=C1c2cc(-c3nnc(C(F)F)o3)ccc2CN1c1ccccc1-c1cccc(OCC(F)(F)F)c1 [Example 315, 6-(5-(difluoromethyl)-1,3,4-oxadiazol-2-yl)-2-(3′-(2,2,2-trifluoroethoxy)biphenyl-2-yl)isoindolin-1-one] | 98 |
| N#CC1(c2ccc(-c3ccccc3N3Cc4ccc(-c5nnc(C(F)F)o5)cc4C3=O)cc2)CC1 [Example 316, 1-(2′-(6-(5-(difluoromethyl)-1,3,4-oxadiazol-2-yl)-1-oxo-1,3-dihydro-2H-isoindol-2-yl)-biphenyl-4-yl)cyclopropane-carbonitrile] | 92 |
| COCCOc1ccccc1-c1ccccc1N1Cc2ccc(-c3nnc(C(F)F)o3)cc2C1=O [Example 317, 6-(5-(difluoromethyl)-1,3,4-oxadiazol-2-yl)-2-(2′-(2-methoxyethoxy)biphenyl-2-yl)isoindolin-1-one] | 97 |
| O=C1c2cc(-c3nnc(C(F)F)o3)ccc2CN1c1ccccc1-c1cnn(C(F)F)c1 [Example 318, 6-(5-(difluoromethyl)-1,3,4-oxadiazol-2-yl)-2-(2-(1-(difluoromethyl)-1H-pyrazol-4-yl)phenyl)isoindolin-1-one] | 98 |
| O=C1c2cc(-c3nnc(C(F)F)o3)ccc2CN1c1ccccc1-c1cnn(C2CCOCC2)c1 [Example 319, 6-(5-(difluoromethyl)-1,3,4-oxadiazol-2-yl)-2-(2-(1-(tetrahydro-2H-pyran-4-yl)-1H-pyrazol-4-yl)phenyl)-isoindolin-1-one] | 86 |
| Cn1nc(C(F)(F)F)cc1-c1ccccc1N1Cc2ccc(-c3nnc(C(F)F)o3)cc2C1=O [Example 320, 6-(5-(difluoromethyl)-1,3,4-oxadiazol-2-yl)-2-(2-(1-methyl-3-(trifluoromethyl)-1H-pyrazol-5-yl)phenyl)-isoindolin-1-one] | 99 |
| COCCOc1ccc(-c2ccccc2N2Cc3ccc(-c4nnc(C(F)F)o4)cc3C2=O)cc1 [Example 321, 6-(5-(difluoromethyl)-1,3,4-oxadiazol-2-yl)-2-(4′-(2-methoxyethoxy)biphenyl-2-yl)isoindolin-1-one] | 98 |
| O=C1c2cc(-c3nnc(C(F)F)o3)ccc2CN1c1ccccc1-c1cnc(OCC(F)(F)F)nc1 [Example 322, 6-(5-(difluoromethyl)-1,3,4-oxadiazol-2-yl)-2-(2-(2-(2,2,2-trifluoroethoxy)-pyrimidin-5-yl)phenyl)-isoindolin-1-one] | 23 |
| O=C1c2cc(-c3nnc(C(F)F)o3)ccc2CN1c1ccccc1-c1cnn(Cc2ccccn2)c1 [Example 323, 6-(5-(difluoromethyl)-1,3,4-oxadiazol-2-yl)-2-(2-(1-(pyridin-2-ylmethyl)-1H-pyrazol-4-yl)phenyl)-isoindolin-1-one] | 97 |
| N#CCOc1cccc(-c2ccccc2N2Cc3ccc(-c4nnc(C(F)F)o4)cc3C2=O)c1 [Example 324, ((2′-(6-(5-(difluoromethyl)-1,3,4-oxadiazol-2-yl)-1-oxo-1,3-dihydro-2H-isoindol-2-yl)biphenyl-3-yl)oxy)-acetonitrile] | 97 |
| O=C(c1cccc(-c2ccccc2N2Cc3ccc(-c4nnc(C(F)F)o4)cc3C2=O)c1)N1CCCC1 [Example 325, 6-(5-(difluoromethyl)-1,3,4-oxadiazol-2-yl)-2-(3′-(pyrrolidin-1-ylcarbonyl)-biphenyl-2-yl)isoindolin-1-one] | 100 |
| O=C1c2cc(-c3nnc(C(F)F)o3)cc(F)c2CN1C[C@@H]1CCCN1 [Example 326, 6-(5-(difluoromethyl)-1,3,4-oxadiazol-2-yl)-4-fluoro-2-((2S)-pyrrolidin-2-ylmethyl)-isoindolin-1-one] | 86 |
| O=C1c2cc(-c3nnc(C(F)F)o3)ccc2CN1c1ccccc1-n1cccn1 [Example 330, 6-(5-(difluoromethyl)-1,3,4-oxadiazol-2-yl)-2-(2-(1H-pyrazol-1-yl)phenyl)-isoindolin-1-one] | 99 |
| CC(C)(C)OC(=O)N1CC(F)(F)C[C@H]1CN1Cc2c(F)cc(-c3nnc(C(F)F)o3)cc2C1=O [Example 331, tert-butyl (2S)-2-((6-(5-(difluoromethyl)-1,3,4-oxadiazol-2-yl)-4-fluoro-1-oxo-1,3-dihydro-2H-isoindol-2-yl)methyl)-4,4-difluoropyrrolidine-1-carboxylate] | 97 |
| COc1ccc(CN2Cc3ncc(-c4nnc(C(F)F)o4)cc3C2=O)cc1 [Example 332, 3-(5-(difluoromethyl)-1,3,4-oxadiazol-2-yl)-6-(4-methoxybenzyl)-6,7-dihydro-5H-pyrrolo[3,4-b]pyridin-5-one] | 99 |
| O=C1c2cc(-c3nnc(C(F)F)o3)cc(F)c2CN1C[C@@H]1CCCN1S(=O)(=O)C1CC1 [Example 336, 2-(((2S)-1-(cyclopropyl-sulfonyl)pyrrolidin-2-yl)methyl)-6-(5-(difluoromethyl)-1,3,4-oxadiazol-2-yl)-4-fluoroisoindolin-1-one] | 102 |
| O=C1c2cc(-c3nnc(C(F)F)o3)ccc2CN1[C@@H]1CCCC[C@H]1N(C(=O)C(F)F)c1ccccn1 [Example 337, N-((1R,2R)-2-(6-(5-(difluoromethyl)-1,3,4-oxadiazol-2-yl)-1-oxo-1,3-dihydro-2H-isoindol-2-yl)-cyclohexyl)-2,2-difluoro-N-(pyridin-2-yl)acetamide] | 101 |

Source: patent US10435399B2, “HDAC6 inhibitory heterocyclic compound” (TAKEDA PHARMACEUTICAL COMPANY LIMITED, priority 2017, dated 2019)
